# Measurements as given in article PMC7049619 (Acta Pharmaceutica Sinica. B, 2019).
# “And” between values parts separate entries of the source, which are not always exact repeats. Equal values may be shown once.
# How the values were obtained:
# [1] = system: HIV-1IIIB; experiment: Anti-HIV-1 activity; assay type: cell-based; details: for SI (selectivity index): ratio CC50/EC50, C8166 cells, Table 1; for times more potent than NVP: C8166, Table 1 EC50
# [2] = Cytotoxicity in C8166 cells by MTT method; details: human
# [3] = system: K103N/Y181C double mutant HIV-1 strain; details: cited from earlier work
# [4] = system: HIV-1TC-1; assay type: cell-based; details: Human immunodeficiency virus 1, PBMC, HIV-1TC-1, PBMC; Table 2
# [5] = system: HIV-1RF/V82F/184V; experiment: Anti-HIV-1 activity against resistant strain HIV-1RF/V82F/184V in C8166 cells; assay type: cell-based; details: Human immunodeficiency virus 1, C8166
# [6] = system: HIV-1 laboratory adapted strains and primary isolated strains; assay type: cell-based; details: HIV-1IIIB, HIV-1Ba-L and HIV-1TC-1; Table 2 EC50
# [7] = in vivo; details: male, Sprague-Dawley, rat, plasma
# [8] = system: HIV-1_74V; experiment: Anti-HIV-1 activity against resistant strain HIV-1_74V in C8166 cells; assay type: cell-based; details: Human immunodeficiency virus 1, C8166
# [9] = Cytotoxicity in PBMC; assay type: cell-based; details: human, PBMC (peripheral blood mononuclear cells)
# [10] = molecular target: recombinant HIV-1 RT (Human immunodeficiency virus type 1 group M subtype B, UniProt P04585); experiment: Enzymatic recombinant HIV-1 RT activity assay; assay type: biochemical
# [11] = system: HIV-1A17 (K103N + Y181C); experiment: Anti-HIV-1 activity against resistant strain HIV-1A17; assay type: cell-based; details: Human immunodeficiency virus 1, C8166
# [12] = system: HIV-1Ba-L; experiment: Anti-HIV-1Ba-L activity, luciferase gene expression assay in TZM-bl cells; assay type: cell-based; details: Human immunodeficiency virus 1, TZM-b1
# [13] = system: HIV-1WAN; assay type: cell-based; details: Human immunodeficiency virus 1, PBMC
# [14] = Cytotoxicity in TZM-bl cells; assay type: cell-based; details: human
Structure (SMILES),SI (selectivity index) [1],CC50 at 3 days [2] [nM],EC50 [4] [nM],EC50 [5] [nM],EC50 [8] [nM],CC50 [9] [nM],EC50 [11] [nM],EC50 [12] [nM],EC50 [13] [nM],CC50 at 3 days [14] [nM],other results
"Cc1cn([C@H]2C[C@H](N=[N+]=[N-])[C@@H](CO)O2)c(=O)[nH]c1=O [AZT, zidovudine, reference compound]",">22,472",> 200000,,,,,,,,,
"Cc1cc(C#N)cc(C)c1Oc1nc(Nc2ccc(C#N)cc2)nc(N)c1Br [ETR, etravirine, reference compound]","19,628",27500 ± 5690,,,,,,,,,EC50 [3]: 50 nM
"CCc1c(CC2CCCCC2)nc(SCc2cc(-c3ccccc3)[nH]n2)[nH]c1=O [I-01, 6-(Cyclohexylmethyl)-5-ethyl-2-(((5-phenyl-1H-pyrazol-3-yl)methyl)thio)pyrimidin-4(3H)-one]",,,,,,,,,,,times more potent than NVP [1]: about 10 times
"CCc1c(CC2CCCCC2)nc(SCc2cc(-c3cccc(C)c3)[nH]n2)[nH]c1=O [I-02, 6-(Cyclohexylmethyl)-5-ethyl-2-(((5-(m-tolyl)-1H-pyrazol-3-yl)methyl)thio)pyrimidin-4(3H)-one]",1120,82800 ± 2200,,,,,,,,,
"CCc1c(CC2CCCCC2)nc(SCc2cc(-c3ccc(C)cc3)[nH]n2)[nH]c1=O [I-07, 6-(Cyclohexylmethyl)-5-ethyl-2-(((5-(p-tolyl)-1H-pyrazol-3-yl)methyl)thio)pyrimidin-4(3H)-one]",1748,91400 ± 1900,,,,,,,,,
"CCc1c(CC2CCCCC2)nc(SCc2cc(-c3ccc(O)cc3)[nH]n2)[nH]c1=O [I-11, 6-(Cyclohexylmethyl)-5-ethyl-2-(((5-(4-hydroxyphenyl)-1H-pyrazol-3-yl)methyl)thio)pyrimidin-4(3H)-one]",,,14.5 ± 0.1,54.1 ± 23.1,46.2 ± 23.7,46800 ± 5200,2770 ± 820,48.5 ± 6.8,56.6 ± 2.4,77100 ± 3680,"times more potent than NVP [1]: about 10 times; times more potent than NVP [6]: 5–14 times; AUC(0-inf) ([7]; iv, 1 mg/kg): 2630 ng·h/mL; AUC(0-t) ([7]; iv, 1 mg/kg): 2600 ng·h/mL; Cmax ([7]; iv, 1 mg/kg): 7180 ng/mL; MRT inf ([7]; iv, 1 mg/kg): 33.2 min; Vd ([7]; iv, 1 mg/kg): 0.213 L/kg; clearance ([7]; iv, 1 mg/kg): 6.4 mL/min/kg; half-life ([7]; iv, 1 mg/kg): 72 min; bioavailability ([7]; oral, 5 mg/kg): 10.4%; AUC(0-inf) ([7]; po, 5 mg/kg): 1370 ng·h/mL; AUC(0-t) ([7]; po, 5 mg/kg): 1300 ng·h/mL; CL/F ([7]; po, 5 mg/kg): 63.8 mL/min/kg; Cmax ([7]; po, 5 mg/kg): 1.54 µM and 654 ng/mL; MRT ([7]; po, 5 mg/kg): 33.2 min; Tmax ([7]; po, 5 mg/kg): 30 min; half-life ([7]; po, 5 mg/kg): 150 min; IC50 [10]: 1090 ± 590 nM"
"CCc1c(CC2CCCCC2)nc(SCc2cc(-c3ccc(SC)cc3)[nH]n2)[nH]c1=O [I-12, 6-(Cyclohexylmethyl)-5-ethyl-2-(((5-(4-(methylthio)phenyl)-1H-pyrazol-3-yl)methyl)thio)pyrimidin-4(3H)-one]",,,55.4 ± 11.2,219 ± 46.5,88.1 ± 17.9,> 200000,4870 ± 2710,193 ± 26.1,165,> 200000,IC50 [10]: 2270 ± 120 nM
"CCc1c(CC2CCCCC2)nc(SCc2n[nH]c(-c3ccc(Cl)c(Cl)c3)c2Cl)[nH]c1=O [I-32, 2-(((4-Chloro-5-(3,4-dichlorophenyl)-1H-pyrazol-3-yl)methyl)thio)-6-(cyclohexylmethyl)-5-ethyl-pyrimidin-4(3H)-one]",544,190000 ± 13900,,,,,,,,,
"O=c1cc(CC2CCCCC2)nc(SCc2cc(-c3ccccc3)[nH]n2)[nH]1 [I-38, 6-(Cyclohexylmethyl)-2-(((5-phenyl-1H-pyrazol-3-yl)methyl)thio)pyrimidin-4(3H)-one]",16,79100 ± 5340,,,,,,,,,
"Cc1ccnc2c1NC(=O)c1cccnc1N2C1CC1 [NVP, nevirapine, reference compound]",,,199 ± 48.7,61.4 ± 8.5,76.8 ± 19.3,> 200000,20200 ± 3100,166 ± 46.5,77 ± 19.3,> 200000,
